Measured values from ChEMBL document CHEMBL1201862, “PubChem BioAssay data set” (2004).
Activity calls are given as the source filed them.

How the values were obtained:
[1] = HeLa cell cytotoxicity, dose response, cytotoxicity control, 24 h, plate reader, powder samples, set 3 (AID 651864); type: functional, cell-based
[2] = molecular target: T1, Low molecular weight phosphotyrosine protein phosphatase (Homo sapiens, UniProt P24666); assay: LMPTP phosphatase inhibitors, dose response, biochemical, OMFP substrate, fluorescence intensity, set 2 (AID 743307); type: functional
T1 sequence (P24666 whole entry): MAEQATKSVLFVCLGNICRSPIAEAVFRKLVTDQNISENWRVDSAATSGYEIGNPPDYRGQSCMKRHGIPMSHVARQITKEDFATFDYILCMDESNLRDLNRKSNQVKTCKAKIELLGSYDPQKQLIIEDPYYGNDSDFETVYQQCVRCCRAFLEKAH

[3] = molecular target: T1, Low molecular weight phosphotyrosine protein phosphatase; assay: LMPTP phosphatase inhibitors, colorimetric pNPP readout, dose response, orthogonal assay, biochemical, absorbance, pNPP substrate, LMPTP-A isoform, set 2 (AID 743308); type: functional
[4] = molecular target: T2, Methionyl-tRNA synthetase, putative (Trypanosoma brucei brucei, UniProt Q38C91); type: functional, Trypanosoma brucei brucei strain 927/4 GUTat10.1
T2 sequence (Q38C91 whole entry): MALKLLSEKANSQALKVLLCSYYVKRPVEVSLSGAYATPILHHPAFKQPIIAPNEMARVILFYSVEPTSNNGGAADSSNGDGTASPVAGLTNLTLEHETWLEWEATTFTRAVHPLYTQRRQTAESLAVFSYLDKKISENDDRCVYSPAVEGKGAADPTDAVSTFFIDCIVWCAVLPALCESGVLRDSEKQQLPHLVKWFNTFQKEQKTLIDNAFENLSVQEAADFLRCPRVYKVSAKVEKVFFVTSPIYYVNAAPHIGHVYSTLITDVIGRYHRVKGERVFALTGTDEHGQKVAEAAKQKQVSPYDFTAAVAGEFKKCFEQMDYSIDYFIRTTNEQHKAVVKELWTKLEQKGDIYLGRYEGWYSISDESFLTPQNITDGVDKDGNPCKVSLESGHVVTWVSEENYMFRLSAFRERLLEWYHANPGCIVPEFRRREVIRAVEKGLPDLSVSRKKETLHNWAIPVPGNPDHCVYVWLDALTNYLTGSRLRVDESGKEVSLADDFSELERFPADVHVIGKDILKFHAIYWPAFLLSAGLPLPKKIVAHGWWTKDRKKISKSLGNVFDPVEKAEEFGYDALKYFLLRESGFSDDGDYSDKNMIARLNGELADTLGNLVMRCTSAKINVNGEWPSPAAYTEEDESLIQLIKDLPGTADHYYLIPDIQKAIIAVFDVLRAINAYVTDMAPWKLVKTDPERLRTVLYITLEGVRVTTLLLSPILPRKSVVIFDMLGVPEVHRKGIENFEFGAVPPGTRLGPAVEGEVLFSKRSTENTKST

[5] = Counterscreen for inhibitors of Trypanosoma brucei methionyl tRNA synthetase (MetRS): Luminescence-based cell-based high throughput dose response assay to identify compounds that are cytotoxic to Jurkat human T lymphocyte cells.; type: functional
[6] = molecular target: T2, Methionyl-tRNA synthetase, putative; type: functional, Trypanosoma brucei brucei strain 927/4 GUTat10.1; remark: listed apart in the source
[7] = Late stage counterscreen for inhibitors of Trypanosoma brucei methionyl tRNA synthetase (MetRS): Luminescence-based cell-based high throughput dose response assay to identify compounds that are cytotoxic to Jurkat human T lymphocyte cells.; type: functional
[8] = T. brucei MetRS inhibitors, orthogonal readout, late-stage follow-up, orthogonal assay for T. brucei MetRS inhibitor project, biochemical, fluorescence polarization, dose response (AID 686969)
[9] = A375 melanoma cell viability loss, dose response, counter-screen for MITF inhibitor project, CellTiter-Glo luminescence, dry powder, set 4 (AID 624364); type: functional, cell-based; details: A-375;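 note: A375 melanoma cells are MITF independent so this is a counter screen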
[10] = A375 melanoma cell cytotoxicity, dose response, counter-screen for MITF inhibitor project, CellTiter-Glo luminescence, dry powder, set 2 (AID 624489); type: functional, cell-based; details: A-375;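 note: actives are compounds lowering A375 viability meaning general cytotoxicity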
Transthyretin = Transthyretin (Homo sapiens, UniProt P02766); assay: Luminescence-based cell-based high throughput dose response assay to identify activators of Transthyretin (TTR) transcription.; type: functional
[11] = P. falciparum 3D7-ScDHODH growth inhibitors, dose response, SYBR Green, dry powder samples (AID 1159570); type: functional, cell-based;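 note: parasite growth measured after 72 hours of compound exposure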
[12] = HepG2 cell cytotoxicity, dose response, cytotoxicity control, plate reader, dry powder samples (AID 1159569); type: functional, cell-based;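 note: inhibitor potency with signal falling toward the positive control level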
[13] = P. falciparum Dd2 growth inhibitors, dose response, SYBR Green, cherry-picked samples (AID 1159567); type: functional, cell-based
[14] = P. falciparum Dd2 growth inhibitors, dose response, SYBR Green, dry powder samples (AID 1159566); type: functional, cell-based;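 note: potency for growth inhibition with lower SYBR green DNA signal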
[15] = HepG2 cell cytotoxicity, dose response, cytotoxicity control, cherry-picked samples (AID 1159577); type: functional, cell-based
[16] = P. falciparum ATP4 D1247Y mutant growth inhibitors, dose response, NITD609-resistant line, SYBR Green, dry powder (AID 1159571); type: functional, cell-based;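 note: parasites synchronized at ring stage by sorbitol before testing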
[17] = molecular target: T3, Carboxy-terminal domain RNA polymerase II polypeptide A small phosphatase 1 (Homo sapiens, UniProt Q9GZU7); assay: inhibitors of CTDSP1, concentration-response testing, biochemical assay, absorbance-based, actives from ultra-high-throughput screening (AID 540297); type: functional
T3 sequence (Q9GZU7 whole entry): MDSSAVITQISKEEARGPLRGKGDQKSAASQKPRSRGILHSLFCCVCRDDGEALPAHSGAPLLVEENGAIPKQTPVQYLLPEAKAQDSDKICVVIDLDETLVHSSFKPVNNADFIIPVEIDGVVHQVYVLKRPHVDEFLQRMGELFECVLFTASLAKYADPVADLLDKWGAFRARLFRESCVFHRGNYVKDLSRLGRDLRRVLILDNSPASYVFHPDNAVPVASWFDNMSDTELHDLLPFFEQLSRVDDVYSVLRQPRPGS

Protein Tat = Protein Tat (Human immunodeficiency virus type 1 group M subtype B (isolate HXB2)(HIV-1), UniProt P04608); type: functional;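 note: tat binding to TAR RNA read out by fluorescence polarization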
Protein Tat, sequence (P04608 whole entry): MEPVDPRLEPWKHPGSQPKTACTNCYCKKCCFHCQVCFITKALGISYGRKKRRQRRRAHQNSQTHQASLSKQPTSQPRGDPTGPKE

[18] = THP-1 cell cytotoxicity, dose response, cytotoxicity control for Vif-APOBEC3G degradation inhibitor project, THP-1 cells (AID 1117359); type: functional; details: Human immunodeficiency virus 1, THP-1
[19] = HT-29 colorectal cell cytotoxicity over time, dose response, HRas target identification project, CellTiter-Glo, multiple timepoints, dry powder (AID 720598); type: functional, cell-based
[20] = SR lymphoma cell viability over time, late-stage follow-up, mechanism study for HRAS target identification, CellTiter-Glo ATP luminescence, 8-48 h, dry powder (AID 720608); type: functional, cell-based
[21] = LOX IMVI melanoma cell viability loss, dose response, HRAS target identification, CellTiter-Glo ATP luminescence, 8/24/48 h, dry powder (AID 720602); type: functional, cell-based
[22] = SNB-75 astrocytoma cell viability loss, late-stage follow-up, mechanism study for HRAS target identification, CellTiter-Glo ATP luminescence, several timepoints, dry powder (AID 720624); type: functional, cell-based
[23] = CCRF-CEM leukemia cell viability loss, dose response, HRAS target identification, CellTiter-Glo ATP luminescence, 8/24/48 h, dry powder (AID 720607); type: functional, cell-based
[24] = cytotoxicity in HepG2 cells, dose response, cytotoxicity control, cell-based, plate reader, dry powder (AID 651947); type: functional
[25] = Mtb BioA inhibitors by displacement, dose response, biochemical, coupled fluorescence displacement, 20-point, dry powder (AID 743357); type: functional
[26] = Vero cell cytotoxicity, dose response, cytotoxicity control for Vif-APOBEC3G degradation inhibitor project, Vero cells (AID 1117358); type: functional; details: Human immunodeficiency virus 1, Vero
[27] = Luminescence-based counterscreen assay for KLF5 inhibitors: dose response cell-based high throughput screening assay to identify cytotoxic compounds using the IEC-6 intestinal epithelial cell line. [Related pubchem assays: 1700 (Primary screen.), 1834 (Confirmation screen.), 1858 (Summary AID.), 1905 (Counterscreen.)]; type: functional
Nonstructural protein 1 = Nonstructural protein 1 (Influenza A virus, UniProt Q194T2); type: functional, Influenza A virus (A/California/07/2009(H1N1))
Nonstructural protein 1, sequence (Q194T2 whole entry): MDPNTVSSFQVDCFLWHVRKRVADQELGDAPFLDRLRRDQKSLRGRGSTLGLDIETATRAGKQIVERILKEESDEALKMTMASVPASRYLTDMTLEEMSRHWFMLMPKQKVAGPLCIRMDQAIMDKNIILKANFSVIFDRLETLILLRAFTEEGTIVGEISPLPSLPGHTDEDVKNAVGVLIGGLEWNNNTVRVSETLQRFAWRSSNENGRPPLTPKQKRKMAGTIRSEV

[28] = HEK293T cell cytotoxicity, dose response, cytotoxicity control, CellTiter-Glo luminescence, dry powder, set 2 (AID 720595); type: functional, cell-based; details: HEK293
[29] = HeLa cell cytotoxicity, dose response, cytotoxicity control, CellTiter-Glo luminescence, dry powder, set 2 (AID 720593); type: functional, cell-based
Fibrinogen beta chain [30] = molecular target: T4, Fibrinogen beta chain (Homo sapiens, UniProt P02675); assay: Fluorescence polarization-based biochemical high throughput dose response assay to identify inhibitors that disrupt the binding of a cyclic peptide (Tn6) to the fibrin proteolytic product D-Dimer and fragment E complex [DD(E )].
T4 sequence (P02675 whole entry, the tested form may be a part): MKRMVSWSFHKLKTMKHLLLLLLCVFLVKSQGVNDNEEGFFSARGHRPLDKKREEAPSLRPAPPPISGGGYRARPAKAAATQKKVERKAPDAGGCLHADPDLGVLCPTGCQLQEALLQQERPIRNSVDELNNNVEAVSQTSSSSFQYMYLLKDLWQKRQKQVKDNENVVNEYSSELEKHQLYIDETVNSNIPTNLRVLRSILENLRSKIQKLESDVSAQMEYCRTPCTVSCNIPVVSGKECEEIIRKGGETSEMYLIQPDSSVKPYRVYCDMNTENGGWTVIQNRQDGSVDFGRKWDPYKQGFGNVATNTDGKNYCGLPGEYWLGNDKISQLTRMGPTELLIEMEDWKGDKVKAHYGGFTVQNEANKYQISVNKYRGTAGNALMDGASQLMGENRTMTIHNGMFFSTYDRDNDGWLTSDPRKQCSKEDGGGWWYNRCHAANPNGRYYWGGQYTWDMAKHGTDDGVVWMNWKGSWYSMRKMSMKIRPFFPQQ

Fibrinogen beta chain [31] = molecular target: T4, Fibrinogen beta chain; assay: Fluorescence polarization-based biochemical high throughput dose response assay to identify inhibitors that disrupt the binding of a cyclic peptide (Tn7) to the fibrin proteolytic product D-Dimer and fragment E complex [DD(E )].
[32] = NIH-3T3 fibroblast cytotoxicity, dose response, cytotoxicity control, cell-based, fluorescence, Alamar Blue, secondary assay (AID 2327); type: functional;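 note: NIH-3T3 mouse fibroblasts cultured with fluconazole at 8 µg/mL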
[33] = C. albicans growth with fluconazole, confirmation, fluorescence, retest (AID 2467); type: functional, cell-based
[34] = growth suppression of PTEN-null colon cells, dose response, cell-based, HCT116 PTEN knockout (AID 1047); type: functional;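 note: HCT116 colon tumor cells with PTEN knocked out; cells exposed to compound for 60 hours before readout; potency for loss of cell viability measured by luminescence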
[35] = growth suppression of beta-catenin-knockout colon cells, dose response, cell-based, HCT116, human colon tumor (AID 1045); type: functional;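 note: HCT116 colon tumor cells with beta catenin knocked out; cells exposed to compound for 60 hours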
[36] = cytotoxicity in HEK-293T cells, dose response, cytotoxicity control for TCR NF-kB inhibitor project, luminescence, T-cell screen hits (AID 489026); type: functional, cell-based;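 note: cells exposed to compound about 14 hours before the viability readout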
[37] = molecular target: T5, Microphthalmia-associated transcription factor (Homo sapiens, UniProt O75030); assay: TRPM1 promoter luciferase signal decrease, dose response, MITF inhibitor project, cell-based, SK-MEL-5, cherry-picked, set 3 (AID 493073); type: functional
T5 sequence (O75030 whole entry): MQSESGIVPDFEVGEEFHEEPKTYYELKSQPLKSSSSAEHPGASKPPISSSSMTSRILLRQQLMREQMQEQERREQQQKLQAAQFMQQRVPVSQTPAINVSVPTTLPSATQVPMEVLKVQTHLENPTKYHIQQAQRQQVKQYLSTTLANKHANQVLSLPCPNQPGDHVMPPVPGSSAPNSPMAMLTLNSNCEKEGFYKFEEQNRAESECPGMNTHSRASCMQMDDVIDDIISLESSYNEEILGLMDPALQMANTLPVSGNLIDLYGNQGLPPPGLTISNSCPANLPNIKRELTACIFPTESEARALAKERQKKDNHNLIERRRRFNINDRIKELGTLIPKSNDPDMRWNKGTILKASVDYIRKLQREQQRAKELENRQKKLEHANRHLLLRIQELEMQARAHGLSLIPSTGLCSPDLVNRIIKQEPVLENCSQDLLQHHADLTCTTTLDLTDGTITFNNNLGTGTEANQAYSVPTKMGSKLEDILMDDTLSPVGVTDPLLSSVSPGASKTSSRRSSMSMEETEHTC

[38] = inhibitors of PGC1a acetylation in cells, dose response, cell-based, cherry-picked samples (AID 720514); type: functional;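 note: potency may reflect raised or lowered acetylation signal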
Cytochrome P450 3A4 = Cytochrome P450 3A4 (Homo sapiens, UniProt P08684);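 note: CYP3A4 tested as one member of a cytochrome P450 panel screen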
Cytochrome P450 3A4, sequence (P08684 whole entry): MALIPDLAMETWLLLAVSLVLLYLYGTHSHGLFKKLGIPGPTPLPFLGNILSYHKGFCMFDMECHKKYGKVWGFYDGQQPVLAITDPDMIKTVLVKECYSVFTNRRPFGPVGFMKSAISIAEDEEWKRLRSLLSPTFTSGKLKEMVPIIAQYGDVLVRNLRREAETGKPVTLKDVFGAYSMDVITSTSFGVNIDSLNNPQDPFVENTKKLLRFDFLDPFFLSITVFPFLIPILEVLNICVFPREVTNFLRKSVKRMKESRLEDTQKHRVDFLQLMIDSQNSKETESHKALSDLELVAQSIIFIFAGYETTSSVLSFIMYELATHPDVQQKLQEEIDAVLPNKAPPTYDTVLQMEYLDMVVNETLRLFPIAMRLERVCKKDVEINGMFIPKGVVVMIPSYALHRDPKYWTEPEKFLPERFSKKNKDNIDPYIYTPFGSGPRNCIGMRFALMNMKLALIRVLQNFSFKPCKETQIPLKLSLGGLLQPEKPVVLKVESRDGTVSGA

Cytochrome P450 2C9 = Cytochrome P450 2C9 (Homo sapiens, UniProt P11712)
Cytochrome P450 2C9, sequence (P11712 whole entry): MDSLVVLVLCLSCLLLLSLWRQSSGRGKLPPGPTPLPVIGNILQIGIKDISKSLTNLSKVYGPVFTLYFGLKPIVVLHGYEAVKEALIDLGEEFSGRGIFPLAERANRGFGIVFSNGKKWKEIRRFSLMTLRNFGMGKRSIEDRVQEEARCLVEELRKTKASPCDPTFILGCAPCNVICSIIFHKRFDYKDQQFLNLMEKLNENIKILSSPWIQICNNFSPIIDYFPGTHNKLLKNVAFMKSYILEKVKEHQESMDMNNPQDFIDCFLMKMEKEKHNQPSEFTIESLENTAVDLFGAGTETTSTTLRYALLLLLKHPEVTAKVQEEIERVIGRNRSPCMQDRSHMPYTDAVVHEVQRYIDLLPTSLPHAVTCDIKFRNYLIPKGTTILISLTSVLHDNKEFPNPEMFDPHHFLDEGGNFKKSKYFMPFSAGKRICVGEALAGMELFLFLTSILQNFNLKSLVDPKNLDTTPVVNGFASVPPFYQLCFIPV

## CCn1nnc(CCc2ccc(N3CCCC3)cc2)n1
[1]
  AC50: > 160 µM (inactive)

## CN1CCN(c2nc(-c3ccccc3)nc3ccccc23)CC1
[2]
  IC50: > 80 µM (inactive)
[3]
  IC50: > 80 µM (inactive)

## COc1ccc(CNC(=O)CSc2n[nH]c3c4cc(F)ccc4nc-3n2)cc1
[4]
  IC50: 4.39 µM (active)
[5]
  IC50: 83.3 µM (inactive)
[6]
  IC50: 0.879 µM (active)
[7]
  IC50: > 83.3 µM (inactive)
[8]
  IC50: > 1.54 µM (active)

## COc1ccc(C2=C(NC(=O)c3ccccc3OC)C(=O)c3ccccc3C2=O)cc1
[9]
  AC50: 38.1 µM (active)
[10]
  AC50: 32.4 µM (active)

## CC1CN(Cc2ccccc2)c2nc3c(c(=O)n(CC(N)=O)c(=O)n3C)n2C1 (stereo not drawn)
Transthyretin
  EC50: > 167 µM (inactive)

## Cc1nc(N2[C@H](CO)[C@H](c3ccccc3)[C@H]2CNCC2CCC2)sc1C
[11]
  AC50: 1.47 µM (active)
[12]
  AC50: > 100 µM (inactive)
[13]
  AC50: 1.8 µM (active)
[14]
  AC50: 0.881 µM (active)
[15]
  AC50: 29.3 µM (active)
[16]
  AC50: 1.34 µM (active)

## CN(CC(=O)Nc1ccc(F)cc1)C(=O)c1cc(-c2ccco2)nc2ccccc12
[17]
  IC50: 5.11 µM (active)
Protein Tat
  IC50: > 100 µM (active)
[18]
  CC50: > 40 µM (active)

## Cc1onc(C(=O)N2CCN(C(c3ccc(Cl)cc3)c3ccc(Cl)cc3)CC2)c1[N+](=O)[O-]
[19]
  AC50: 1.3 µM (active)
[20]
  AC50: 0.181 µM (active)
[21]
  AC50: 0.199 µM (active)
[22]
  AC50: 0.723 µM (active)
[23]
  AC50: 0.234 µM (active)

## c1ccc(CSc2nnc(-c3ccccc3)s2)cc1
[24]
  AC50: 33.8 µM (active)

## CC(=O)c1ccc(N2CCN(C(=O)c3cc(Cl)c4c(c3)OCO4)CC2)cc1
[25]
  AC50: 12.2 µM (active)

## COc1cc(C(=O)NCc2nnc(SCC(=O)Nc3nc4ccc(C)cc4s3)o2)cc(OC)c1OC
[26]
  CC50: > 40 µM (active)

## O=C(CSc1n[nH]c(-c2ccccn2)n1)Nc1ccc(Cl)cc1
[27]
  IC50: 5.14 µM (active)
Nonstructural protein 1
  IC50: 8.79 µM (active)
[28]
  AC50: 2.2 µM (active)
[29]
  AC50: 47.5 µM (active)

## CCOC(=O)C1(C)C(=O)CC2c3nc4ccccc4cc3CN2C1=O (stereo not drawn)
Fibrinogen beta chain [30]
  IC50: 9.24 µM (active)
Fibrinogen beta chain [31]
  IC50: > 83.2 µM (inactive)

## Cn1c(SC2=CS(=O)(=O)c3ccccc32)nc2ccccc21
[32]
  EC50: 7.76 µM (inconclusive)
[33]
  EC50: > 38 µM (not active)
[34]
  EC50: 2.87 µM (active)
[35]
  EC50: 1.97 µM (active)
[36]
  IC50: > 80 µM (inactive)
[37]
  AC50: 6.72 µM (active)
[38]
  AC50: 11.3 µM (active)
Cytochrome P450 3A4
  AC50: 39.8 µM (inconclusive)
Cytochrome P450 2C9
  AC50: 28.2 µM (inconclusive)
